Assay results as given in patent publication US12077503B2, “Substituted cyclic amides and their use as herbicides” (FMC CORPORATION, priority 2015, dated 2024).

What was measured:
Format in all cases: in vivo
[1] = tested on: barnyardgrass (Echinochloa crus-galli); test: Test G Pre-Emergence Protocol; conditions: Echinochloa crus-galli, pre-emergence, 312 h, evaluated after 13 days; for pest or weed control at 15.625 g/ha: 15.625 g ai/ha; for pest or weed control at 15.625 g/ha / pest or weed control at 250 g/ha: read-out: Barnyardgrass damage rating (100=total damage to plant; 0=no damage to plant); for pest or weed control at 62.5 g/ha: 62.5 g ai/ha, 100=total damage to plant, 0=no damage to plant, read-out: Barnyardgrass damage rating; for pest or weed control at 250 g/ha: 250 g ai/ha
How it was run: (§1)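 Spraying took place one day after sowing, at 15.625, 62.5 or 250 g/ha, using an acetone/water (50:50) spray solution containing 0.5% Tween 20. Plants were kept under glasshouse conditions (24/16 °C, 14 h light, 65% humidity, watered twice daily), and injury was rated 0–100 at day 13.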

corn (Zea mays) [2] = test: Test G Pre-Emergence Protocol; conditions: Zea mays, pre-emergence, 312 h, evaluated after 13 days; for plant injury at 15.625 g/ha: 15.625 g ai/ha; for plant injury at 15.625 g/ha / plant injury at 250 g/ha: read-out: Corn damage rating (100=total damage to plant; 0=no damage to plant); for plant injury at 62.5 g/ha: 62.5 g ai/ha, 100=total damage to plant, 0=no damage to plant, read-out: Corn damage rating; for plant injury at 250 g/ha: 250 g ai/ha
How it was run: as §1

[3] = tested on: giant foxtail (Setaria faberi); test: Test G Pre-Emergence Protocol; conditions: Setaria faberi, pre-emergence, 312 h, evaluated after 13 days; for pest or weed control at 15.625 g/ha: 15.625 g ai/ha; for pest or weed control at 15.625 g/ha / pest or weed control at 250 g/ha: read-out: Foxtail, Giant damage rating (100=total damage to plant; 0=no damage to plant); for pest or weed control at 62.5 g/ha: 62.5 g ai/ha, 100=total damage to plant, 0=no damage to plant, read-out: Foxtail, Giant damage rating; for pest or weed control at 250 g/ha: 250 g ai/ha
How it was run: as §1

[4] = tested on: ivy-leaved morning glory (Ipomoea hederacea); test: Test G Pre-Emergence Protocol; conditions: Ipomoea, pre-emergence, 312 h, evaluated after 13 days; for pest or weed control at 15.625 g/ha: 15.625 g ai/ha; for pest or weed control at 15.625 g/ha / pest or weed control at 250 g/ha: read-out: Morningglory, Ivy-leaved damage rating (100=total damage to plant; 0=no damage to plant); for pest or weed control at 62.5 g/ha: 62.5 g ai/ha, 100=total damage to plant, 0=no damage to plant, read-out: Morningglory, Ivy-leaved damage rating; for pest or weed control at 250 g/ha: 250 g ai/ha
How it was run: as §1

[5] = tested on: redroot pigweed (Amaranthus retroflexus); test: Test G Pre-Emergence Protocol; conditions: Amaranthus retroflexus, pre-emergence, 312 h, evaluated after 13 days; for pest or weed control at 15.625 g/ha: 15.625 g ai/ha; for pest or weed control at 15.625 g/ha / pest or weed control at 250 g/ha: read-out: Pigweed, Redroot damage rating (100=total damage to plant; 0=no damage to plant); for pest or weed control at 62.5 g/ha: 62.5 g ai/ha, 100=total damage to plant, 0=no damage to plant, read-out: Pigweed, Redroot damage rating; for pest or weed control at 250 g/ha: 250 g ai/ha
How it was run: as §1

[6] = tested on: velvetleaf (Abutilon theophrasti); test: Test G Pre-Emergence Protocol; conditions: Abutilon theophrasti, pre-emergence, 312 h, evaluated after 13 days; for pest or weed control at 15.625 g/ha: 15.625 g ai/ha; for pest or weed control at 15.625 g/ha / pest or weed control at 250 g/ha: read-out: Velvetleaf damage rating (100=total damage to plant; 0=no damage to plant); for pest or weed control at 62.5 g/ha: 62.5 g ai/ha, 100=total damage to plant, 0=no damage to plant, read-out: Velvetleaf damage rating; for pest or weed control at 250 g/ha: 250 g ai/ha
How it was run: as §1

[7] = tested on: barnyardgrass (Echinochloa crus-galli); test: Test G Post-Emergence Protocol; conditions: Echinochloa crus-galli, post-emergence, 312 h, read-out: Barnyardgrass damage rating; for pest or weed control at 15.625 g/ha: 15.625 g ai/ha, evaluated after 13 days (100=total damage to plant; 0=no damage to plant); for pest or weed control at 62.5 g/ha: 62.5 g ai/ha; for pest or weed control at 62.5 g/ha / pest or weed control at 250 g/ha: evaluated after 13 days, 100=total damage to plant, 0=no damage to plant; for pest or weed control at 250 g/ha: 250 g ai/ha
How it was run: (§2)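 Damage was rated 13 days after treatment from 0 (none) to 100 (plant killed). Compound was applied as a spray at 15.625, 62.5 or 250 g/ha in 50:50 acetone/water containing 0.5% Tween 20, onto 8-day-old potted plants kept in a glasshouse (24/16 °C, 14 h light, 65% humidity).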

corn (Zea mays) [8] = test: Test G Post-Emergence Protocol; conditions: Zea mays, post-emergence, 312 h, read-out: Corn damage rating; for plant injury at 15.625 g/ha: 15.625 g ai/ha, evaluated after 13 days (100=total damage to plant; 0=no damage to plant); for plant injury at 62.5 g/ha: 62.5 g ai/ha; for plant injury at 62.5 g/ha / plant injury at 250 g/ha: evaluated after 13 days, 100=total damage to plant, 0=no damage to plant; for plant injury at 250 g/ha: 250 g ai/ha
How it was run: as §2

[9] = tested on: giant foxtail (Setaria faberi); test: Test G Post-Emergence Protocol; conditions: Setaria faberi, post-emergence, 312 h, read-out: Foxtail, Giant damage rating; for pest or weed control at 15.625 g/ha: 15.625 g ai/ha, evaluated after 13 days (100=total damage to plant; 0=no damage to plant); for pest or weed control at 62.5 g/ha: 62.5 g ai/ha; for pest or weed control at 62.5 g/ha / pest or weed control at 250 g/ha: evaluated after 13 days, 100=total damage to plant, 0=no damage to plant; for pest or weed control at 250 g/ha: 250 g ai/ha
How it was run: as §2

[10] = tested on: ivy-leaved morning glory (Ipomoea hederacea); test: Test G Post-Emergence Protocol; conditions: Ipomoea, post-emergence, 312 h, read-out: Morningglory, Ivy-leaved damage rating; for pest or weed control at 15.625 g/ha: 15.625 g ai/ha, evaluated after 13 days (100=total damage to plant; 0=no damage to plant); for pest or weed control at 62.5 g/ha: 62.5 g ai/ha; for pest or weed control at 62.5 g/ha / pest or weed control at 250 g/ha: evaluated after 13 days, 100=total damage to plant, 0=no damage to plant; for pest or weed control at 250 g/ha: 250 g ai/ha
How it was run: as §2

[11] = tested on: redroot pigweed (Amaranthus retroflexus); test: Test G Post-Emergence Protocol; conditions: Amaranthus retroflexus, post-emergence, 312 h, read-out: Pigweed, Redroot damage rating; for pest or weed control at 15.625 g/ha: 15.625 g ai/ha, evaluated after 13 days (100=total damage to plant; 0=no damage to plant); for pest or weed control at 62.5 g/ha: 62.5 g ai/ha; for pest or weed control at 62.5 g/ha / pest or weed control at 250 g/ha: evaluated after 13 days, 100=total damage to plant, 0=no damage to plant; for pest or weed control at 250 g/ha: 250 g ai/ha
How it was run: as §2

[12] = tested on: velvetleaf (Abutilon theophrasti); test: Test G Post-Emergence Protocol; conditions: Abutilon theophrasti, post-emergence, 312 h, read-out: Velvetleaf damage rating; for pest or weed control at 15.625 g/ha: 15.625 g ai/ha, evaluated after 13 days (100=total damage to plant; 0=no damage to plant); for pest or weed control at 62.5 g/ha: 62.5 g ai/ha; for pest or weed control at 62.5 g/ha / pest or weed control at 250 g/ha: evaluated after 13 days, 100=total damage to plant, 0=no damage to plant; for pest or weed control at 250 g/ha: 250 g ai/ha
How it was run: as §2

Row | Structure (SMILES) | pest or weed control at 15.625 g/ha [1] [%] | pest or weed control at 62.5 g/ha [1] [%] | pest or weed control at 250 g/ha [1] [%] | plant injury at 15.625 g/ha (corn (Zea mays) [2]) [%] | plant injury at 62.5 g/ha (corn (Zea mays) [2]) [%] | plant injury at 250 g/ha (corn (Zea mays) [2]) [%] | pest or weed control at 15.625 g/ha [3] [%] | pest or weed control at 62.5 g/ha [3] [%] | pest or weed control at 250 g/ha [3] [%] | pest or weed control at 15.625 g/ha [4] [%] | pest or weed control at 62.5 g/ha [4] [%] | pest or weed control at 250 g/ha [4] [%] | pest or weed control at 15.625 g/ha [5] [%] | pest or weed control at 62.5 g/ha [5] [%] | pest or weed control at 250 g/ha [5] [%] | pest or weed control at 15.625 g/ha [6] [%] | pest or weed control at 62.5 g/ha [6] [%] | pest or weed control at 250 g/ha [6] [%] | pest or weed control at 15.625 g/ha [7] [%] | pest or weed control at 62.5 g/ha [7] [%] | also measured
1 | CSc1ncccc1NC(=O)[C@H]1C(=O)N(C)C[C@@H]1c1ccc(C(F)(F)F)cc1 (racemic) [Compound 1786] | 0 | 0 | 20 | 0 | 0 | 0 | 0 | 0 | 80 | 0 | 0 | 0 | 0 | 0 | 40 | 0 | 0 | 30 | 0 | 0 | pest or weed control at 250 g/ha [7]: 0%; plant injury at 15.625 g/ha (corn (Zea mays) [8]): 0%; plant injury at 62.5 g/ha (corn (Zea mays) [8]): 0%; plant injury at 250 g/ha (corn (Zea mays) [8]): 0%; pest or weed control at 15.625 g/ha [9]: 0%; pest or weed control at 62.5 g/ha [9]: 10%; pest or weed control at 15.625 g/ha [10]: 0%; pest or weed control at 62.5 g/ha [10]: 0%; pest or weed control at 250 g/ha [10]: 0%; pest or weed control at 15.625 g/ha [11]: 0%; pest or weed control at 62.5 g/ha [11]: 0%; pest or weed control at 250 g/ha [11]: 20%; pest or weed control at 15.625 g/ha [12]: 0%; pest or weed control at 62.5 g/ha [12]: 0%; pest or weed control at 250 g/ha [12]: 30%
2 | COCCOc1cc([C@@H]2CN(C)C(=O)[C@H]2C(=O)Nc2cccc(F)c2C)ccc1C (racemic) [Compound 1790] | 40 | 70 | 90 | 20 | 70 | 90 | 70 | 70 | 90 | 0 | 20 | 70 | 0 | 0 | 10 | 0 | 0 | 40 | 50 | 70 | pest or weed control at 250 g/ha [7]: 70%; plant injury at 15.625 g/ha (corn (Zea mays) [8]): 50%; plant injury at 62.5 g/ha (corn (Zea mays) [8]): 70%; plant injury at 250 g/ha (corn (Zea mays) [8]): 80%; pest or weed control at 15.625 g/ha [9]: 70%; pest or weed control at 62.5 g/ha [9]: 80%; pest or weed control at 250 g/ha [9]: 80%; pest or weed control at 15.625 g/ha [10]: 20%; pest or weed control at 62.5 g/ha [10]: 20%; pest or weed control at 250 g/ha [10]: 40%; pest or weed control at 15.625 g/ha [11]: 0%; pest or weed control at 62.5 g/ha [11]: 0%; pest or weed control at 250 g/ha [11]: 0%; pest or weed control at 15.625 g/ha [12]: 0%; pest or weed control at 62.5 g/ha [12]: 20%; pest or weed control at 250 g/ha [12]: 30%
3 | Cc1cc([C@H]2CN(C)C(=O)[C@@H]2C(=O)Nc2ccccc2S(C)(=O)=O)cc(C(F)(F)F)c1 (racemic) [Compound 1795] | 30 | 70 | 80 | 0 | 40 | 80 | 60 | 80 | 90 | 0 | 10 | 60 | 0 | 20 | 30 | 0 | 0 | 10 | 20 | 70 | pest or weed control at 250 g/ha [7]: 70%; plant injury at 15.625 g/ha (corn (Zea mays) [8]): 0%; plant injury at 62.5 g/ha (corn (Zea mays) [8]): 40%; plant injury at 250 g/ha (corn (Zea mays) [8]): 70%; pest or weed control at 15.625 g/ha [9]: 60%; pest or weed control at 62.5 g/ha [9]: 80%; pest or weed control at 250 g/ha [9]: 80%; pest or weed control at 15.625 g/ha [10]: 10%; pest or weed control at 62.5 g/ha [10]: 20%; pest or weed control at 250 g/ha [10]: 70%; pest or weed control at 15.625 g/ha [11]: 0%; pest or weed control at 62.5 g/ha [11]: 20%; pest or weed control at 250 g/ha [11]: 30%; pest or weed control at 15.625 g/ha [12]: 0%; pest or weed control at 62.5 g/ha [12]: 0%; pest or weed control at 250 g/ha [12]: 20%
